Consider 6 molecules from patent US20260108476A1, “2,4 DNP and Prodrugs Thereof for Treatment of Cancer” (priority 2021, published 2026).

“Also recorded” adds a separate entry of the source.

The test system of one series is MCF10A/NLS-DAO cells. Briefly: Western blot of EMT markers in MCF10A/NLS-DAO cells. The class given is cell-based. Conditions: D-Ala 10 nM, activation of nuclear ROS. Here is the method:
FIG. 1B is a graph of experimental data showing the quantification of the relative levels of nuclear ROS shown as the ratio of fluorescence between the oxidized and reduced forms. FIG. 1C is a Western blot analysis showing increased EMT markers after activation of nuclear ROS with D-Ala (10 nM). FIG. 1D is a graph of experimental data showing proliferation curves comparing naïve (MCF10A) and D-Ala (10 nM) exposed MCF10A/NLS-DAO cells. Results are averages of at least 5 biologic replicates with (*) representing p<0.05.
Nuclear ROS are sufficient and required to activate EMT and metastasis of breast cancer cells. ROS levels were measured in the nuclei of different breast cancer cell lines displaying vastly different tumorigenicity and metastatic potential using novel NLS-Orp1roGFP2 biosensors. […] Also, transformation of MCF10A by v-Src promoted a marked increase in nuclear ROS levels (FIGS. 1A & B). […] To directly link nuclear ROS with aggressive cancer behavior, a nucleus-targeted system (NLS-D-amino acid oxidase, NLS-DAO) was engineered that allows to generate ROS21 directly in the nucleus and expressed it into MCF10A cells to recreate, using a non-transformed cell background, this distinctive feature of metastatic breast cancer cell lines. […]
(In general: In western blotting, separated proteins are transferred to a membrane and probed.)

The conditions of series [1]: at the doses proposed. Here is the method: The hypothesis that mitigating mitochondrial dysfunction via scavenging ROS prevents chromatin changes that promote treatment resistance is tested using DNP, a compound in development with uncoupling activity already in Phase I trials for Huntington's Disease. DNP works largely by reducing the mitochondrial electrochemical potential reducing the output of ROS.

Series [2] has as its system BT474 NLS Orp roGFP cells. Nature of the series: nuclear ROS by NLS-Orp1roGFP2 biosensor in BT474 cells. The class given is cell-based, human. Conditions: BT474, varying concentrations of DNP, 24 hours. As for the experimental part: (§1) FIGS. 3A-3C show how DNP suppresses nuclear ROS in basal BT breast cancer cell lines.
(§2) Nuclear ROS are sufficient and required to activate EMT and metastasis of breast cancer cells. ROS levels were measured in the nuclei of different breast cancer cell lines displaying vastly different tumorigenicity and metastatic potential using novel NLS-Orp1roGFP2 biosensors. […] Also, transformation of MCF10A by v-Src promoted a marked increase in nuclear ROS levels (FIGS. 1A & B). […] To directly link nuclear ROS with aggressive cancer behavior, a nucleus-targeted system (NLS-D-amino acid oxidase, NLS-DAO) was engineered that allows to generate ROS21 directly in the nucleus and expressed it into MCF10A cells to recreate, using a non-transformed cell background, this distinctive feature of metastatic breast cancer cell lines. […] Next, it was tested whether nuclear ROS contributed to treatment failure by promoting resistance to first line chemotherapeutic drugs, i.e. doxorubicin. It was also tested whether removing suppressing ROS specifically in the nucleus restored sensitivity to doxorubicin. The strategy of removing ROS from the nucleus is novel, targets a feature that seems unique to cancer cells and preserves redox signaling that happen in large part in the cytosol22. […]

For series [3], the system named is models of neurodegeneration. Particulars: very low hermetic doses; cited from earlier work.
The next series has as its system ion channels. Briefly: inhibition of ion channels. An excerpt: (§3) In one embodiment, the compositions and methods of the disclosure relate to targeting oxidative stress upstream at the mitochondria that may be causative for many disorders, including, but not limited to, cancer, pain, and/or pain related conditions. There have been a variety of attempts to lower cellular stress, such as administering anti-oxidants, however these drugs have limited tissue penetration into the brain and lower ROSs after they have been formed. […] While not being bound to theory, it is postulated that DNP modulates the mitochondrial membrane potential having a significant impact at preventing ROS formation in isolated mitochondria and in the treated wildtype mice. DNP treatment 3-hours post-ischemia reduced cerebral infarct volume 40% by protecting the penumbra or “threaten tissue” and could provide similar benefits after a blast to protect inner hair cells from eminent cell death. DNP comes with the benefits of known risks as it was used 80-years ago for weight loss at high doses (˜300 mg) in over 100,000 people, however shown recently in models of neurodegeneration at very low hermetic doses to improve cognition and learning. The pharmacology, which is pleiotropic, appears to provide broad neuroprotection by lowering ROS/mTOR and increasing protective factors such as CAMP, CREB, and BDNF, could be useful for treating hearing loss.

For series [4] the following is noted: treatment 3-hours post-ischemia; cited from earlier work.
Series [5] in a line: pharmacokinetics of DNP in rats. The class given is in vivo.
The next series can be described thus: 28-day toxicity studies. Conditions: low doses. The class given is in vivo.
From the text: as §3

The test system of the next series is BT20 NLS Orp roGFP cells. Nature of the series: nuclear ROS by NLS-Orp1roGFP2 biosensor in BT20 cells. The class given is cell-based, human. Particulars: BT20, varying concentrations of DNP, 24 hours. As for the experimental part:
as §1, §2

The subject of another series is Caco-2. Nature of the series: Caco-2. The class given is in vitro ADME.
From the text: as §3

The test system of the next series is wildtype mice. Conditions: chronic, extraordinarily low dose; cited from earlier work.
For the next series, the system named is CYP. Briefly: inhibition of CYP. The class given is in vitro ADME.
From the text: as §3

A further series has as its system A2780, M248, MES-SA, MX2. Nature of the series: chromatin folding by PWS microscopy in cell line models. The class given is cell-based. Particulars: for chromatin folding (structural alterations): FIG. 5A, five cell line models. The source says:
FIG. 5A is a graph showing structural alterations due to taxol treatment (Paclitaxel or Docetaxel) in contrast to digoxin for five cell line models (A2780, M248, MES-SA, MX2). Chemotherapeutic intervention increases while CPT agent (digoxin) decreases chromatin folding. Error bars: S.E. of 5 different cell lines. FIGS. 5B-5C are diagrams showing intercellular (FIG. 5B) and intra-network (FIG. 5C) transcriptional heterogeneity increases in cells treated with chemotherapy and decreases in cells treated with CPTs for critical biological processes: (1) cell cycle, (2) apoptosis, (3) proliferation, (4) transcription, (5) signaling, (6) differentiation, (7) glycolysis, (8) translation, (9) ion transport, (10) metabolism, (11) oxidation/reduction, (12) stress response, and (13) nucleosome assembly. Circle size: the number of genes within a network/process. Color: % change in transcription heterogeneity compared to controls. […] Digoxin reduces chromatin heterogeneity. Arrow: nuclei.
Chromatin is a complex arrangement of DNA wrapped around structural and regulatory proteins that control the expression of genes directly involved in cellular function and phenotype. Local physicochemical changes broadly affect chromatin folding and alter gene expression patterns across the genome. In a non-limiting example, decoding the chromatin folding code and understanding how different agents affect folding dynamics at the nanoscale can be helpful to develop new diagnostic tools. The resolution of optical microscopy is limited by diffraction to >200 nm. Recently, a major breakthrough has been made in the emergence of super-resolution fluorescence microscopy that enabled development of a suite of label-free nanoscale imaging technologies including Partial Wave Spectroscopic (PWS) Microscopy (see, for example, FIG. 4). The main principle of PWS is a previously overlooked phenomenon that while sub-diffractional structures are not resolvable, they are still detectable through the analysis of interference of elastically scattered light. PWS can measure the statistics of macromolecular density distribution within live or fixed cells with sensitivity in the 20-200 nm length scales, which is ideally suited for the characterization of chromatin topology. It was by using PWS (and corroborated by electron microscopy) that heterogenization of chromatin folding was discovered as one of the earliest events in carcinogenesis across multiple cancer types. Consequently, PWS was turned into a robust diagnostics technology (nanocytology) and is now in clinical trials for early screening or prognostication of lung, colon, and prostate cancers.

Series [6] has as its system PY230 murine mammary tumor cells. Nature of the series: proliferation of PY230 cells under doxorubicin. The class given is cell-based. Particulars: DXR 250 nM, within a few hours from application. Here is the method:
(§4) FIGS. 2A-2B show heightened levels of nuclear ROS in persister chemotherapy-resistance cancer cells. FIG. 2A is a collection of images and graphs showing experimental data generated using NLS-Orp1roGFP2 biosensor to measure ROS in the nucleus of breast cancer cell lines. PY230 murine mammary tumor cells expressing NLS-Orp1roGFP2 were treated with doxorubicin (DXR, 250 nM) for the indicated amounts of times in plots of proliferation as well as fluorescence ratios indicate that persister cells have high levels of nuclear ROS and proliferate in the presence of chemotherapy mimicking clinical chemotherapy resistance where most cells initially die leaving persister ones that rapidly proliferate unabated by treatment. Induction of NLS-catalase, that removes ROS from the nucleus, resensitized persister cells to the killing effects of DXR. FIG. 2B is a collection of images showing mammary xenografts of luciferase-labeled transformed MCF10A constitutively expressing NLS-catalase under an inducible promoter rapidly grow and metastasize within 3 months of implantation. […]
Nuclear ROS are sufficient and required to activate EMT and metastasis of breast cancer cells. ROS levels were measured in the nuclei of different breast cancer cell lines displaying vastly different tumorigenicity and metastatic potential using novel NLS-Orp1roGFP2 biosensors. […]

Series [7] has as its system v-Src transformed luciferase-expressing MCF10A xenografts. Nature of the series: mammary xenograft of v-Src transformed luciferase-expressing MCF10A. The class given is in vivo, NOD/SCID mice. Particulars: doxorubicin combined with NLS-catalase, 2 months of combined therapies, assessed at month 7. As for the experimental part:
as §4, with “DXR.” for “DXR. FIG. 2B is a collection of images showing mammary xenografts of luciferase-labeled transformed MCF10A constitutively expressing NLS-catalase under an inducible promoter rapidly grow and metastasize within 3 months of implantation.”
Results in FIG. 2A, closely recapitulate the reality of most clinical cancer treatments that are effective at first eliminating the bulk tumor but that are become ineffective when the disease recur. […] Three months after implantation, metastases were clearly detected by luciferin-induced bioluminescence in the chest and head of most mice FIG. 2B. […]

With `C[C@@H](N)C(=O)O` [D-Ala], the EMT markers result with MCF10A/NLS-DAO cells is on record as “increased”.
As to `O=[N+]([O-])c1ccc(O)c([N+](=O)[O-])c1` [DNP, 2,4-dinitrophenol], the safety entry in [1] is given as “safe”. Besides, the “levels of nuclear ROS (ox/red Orp1roGFP2 ratio)” value (in [2]; with BT20 NLS Orp roGFP cells) was “strongly suppresses; also recorded: clear concentration dependence of nROS reduction” throughout. Moreover, the cognition and learning entry in series [3] is given as “improve”. Moreover, the “inhibition of ion channels” value in the series on ion channels is reported as “no inhibition”. Further, the “reduction of cerebral infarct volume” value in series [4] was 40%. Also, the distribution entry in series [5] is “good”. Further, in series [5], the oral bioavailability result is “orally bioavailable”. Further, the half-life (as a rule, how long it takes for the measured level to halve) in series [5] (rat, plasma) was about 6 h. Further, the “Safety Index” value in “28-day toxicity studies” (28-day toxicity studies) is given as at least 10 ×. Also, the toxicity entry in the series “28-day toxicity studies” (28-day) is recorded as “not toxic”. Also, the “inhibition, Caco-2” value with Caco-2 is recorded as “no inhibition”. Further, the “lifespan versus untreated mice” value in the series on wildtype mice was “living longer than untreated mice”. Moreover, the “inhibition of CYP” value with CYP is reported as “no inhibition”.
With `CC(=O)O[C@@]12CO[C@@H]1C[C@H](O)[C@@]1(C)C(=O)[C@H](O)C3=C(C)[C@@H](OC(=O)[C@H](O)[C@@H](NC(=O)OC(C)(C)C)c4ccccc4)C[C@@](O)([C@@H](OC(=O)c4ccccc4)[C@H]21)C3(C)C` [Docetaxel], the “chromatin folding (structural alterations)” value (“chromatin folding” for short) with A2780, M248, MES-SA, MX2 was “increases”.
`CC(=O)O[C@H]1C(=O)[C@@]2(C)[C@H]([C@H](OC(=O)c3ccccc3)[C@]3(O)C[C@H](OC(=O)[C@H](O)[C@@H](NC(=O)c4ccccc4)c4ccccc4)C(C)=C1C3(C)C)[C@]1(OC(C)=O)CO[C@@H]1C[C@@H]2O` [Paclitaxel]: in the series on A2780, M248, MES-SA, MX2, the “chromatin folding” value is given as “increases”.
`C[C@H]1O[C@@H](O[C@H]2[C@@H](O)C[C@H](O[C@H]3[C@@H](O)C[C@H](O[C@H]4CC[C@@]5(C)[C@H](CC[C@@H]6[C@@H]5C[C@@H](O)[C@]5(C)[C@@H](C7=CC(=O)OC7)CC[C@]65O)C4)O[C@@H]3C)O[C@@H]2C)C[C@H](O)[C@@H]1O` [digoxin]: in the series on A2780, M248, MES-SA, MX2, the “chromatin folding” value is recorded as “decreases”. In addition, the “chromatin heterogeneity, live cell PWS” value in the series on A2780, M248, MES-SA, MX2 (FIG. 5D) was “reduces”.
In the case of `COc1cccc2c1C(=O)c1c(O)c3c(c(O)c1C2=O)C[C@@](O)(C(=O)CO)C[C@@H]3O[C@H]1C[C@H](N)[C@H](O)[C@H](C)O1` [doxorubicin], the “effect on cell population (proliferation)” value in series [6] is on record as “eliminated the bulk of cells”. Besides, the “metastatic disease and primary tumor (bioluminescence)” value in [7] is listed as “complete remission of metastatic disease as well as significant regression of primary tumor”.
